Consider 7 molecules from patent US12065443B2, “Compounds and pharmaceutical compositions thereof for the treatment of diseases” (priority 2017, dated 2024).

Where two headings read alike, the source gives them in different places. A value given as a limit tells only on which side of the number the result lay.

Experiment [1] addresses T1, SIK1 (Homo sapiens, UniProt P57059).
T1 construct: purchased Carna Biosciences 02-131
As to the kind of experiment: biochemical. To be noted: 33P radioactive SIK kinase assay, AMARA peptide, 10 μM ATP; read-out: SIK1 IC50. The method, boiled down: (§1)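 Radiometric assay: SIK1, SIK2 or SIK3 phosphorylates AMARA peptide using unlabelled plus [^33P]-γ-ATP, reaction started by ATP addition. Stopped with 150 mM phosphoric acid, filter-harvested and washed; incorporated ^33P counted by scintillation. Controls: 1% DMSO and 10 μM staurosporine final.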

Experiment [2] deals with T2, SIK2 (Homo sapiens, UniProt Q9H0K1).
T2 construct: purchased ThermoFisher Scientific PV4792
As to the kind of experiment: biochemical. Conditions: 33P radioactive SIK kinase assay, AMARA peptide, 10 μM ATP. The method, boiled down:
as §1

The target of experiment [3] is T3, SIK3 (Homo sapiens, UniProt Q9Y2K2).
T3 construct: purchased SignalChem S12-11G-100
Kind of experiment: biochemical. The method in brief:
as §1

Experiment [4] has as its target T1, SIK1. Kind of experiment: biochemical. To be noted: ADP-Glo SIK kinase assay. The method, then: (§2) The ADP-Glo™ kinase assay is a luminescent technology assay which measures the ADP formed from a kinase reaction. […] In a second step the kinase reactions are terminated and all the remaining ATP is depleted. In a final step the ADP is converted into ATP and this newly synthesized ATP is measured by using a luciferase/luciferin reaction. The generated light is measured using an Envision plate reader, wherein the luminescent signal obtained positively correlates with the kinase activity.
(§3) 1% DMSO and 10 μM staurosporine final concentrations are used as negative and positive controls.
(§4) 2 μL enzyme-substrate mixture is added to the assay plates.
(§5) The reaction is started by adding 2 μL diluted ATP on the assay plates. Plates are centrifuged for a few seconds at 1000 rpm and gently shaken for 2 min followed by an incubation at RT for 120 min.
(§6) The reactions are stopped and the unconsumed ATP is depleted by adding 5 μL ADP-Glo Reagent (Promega, Cat #V912B) to the reaction. The plates are centrifuged for a few seconds at 1000 rpm and incubated at RT for 40 min (ATP depletion).
(§7) The ADP is converted to ATP and luciferase and luciferin is introduced to detect ATP by adding 10 μL Kinase Detection Reagent (Promega, Cat #V913B+V914B) to the reaction. The plates are centrifuged for a few seconds at 1000 rpm and incubated at RT for 30 min (ADP detection).
(§8) Luminescence is measured on an Envision plate reader (PerkinElmer Inc.).

In experiment [5] the target is T2, SIK2. Kind of experiment: biochemical. Conditions: ADP-Glo SIK kinase assay. The method, then:
as §2, §3, §4, §5, §6, §7, §8
On the technique in general: ADP-Glo first removes unused ATP, then detects ADP through luciferase.

In experiment [6] the target is T3, SIK3. Kind of experiment: biochemical. To be noted: ADP-Glo SIK kinase assay. Here is the method: as §2, §3, §4, §5, §6, §7, §8
Experiment [7] deals with LPS-induced TNFα secretion in monocyte-derived macrophages (MdM). Kind of experiment: MdM assay: LPS-triggered TNFα (ELISA). Type of experiment: cell-based, human. Conditions: Homo sapiens, Macrophage, LPS-triggered TNFα inhibition. The method in brief: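 TNFα ELISA read on supernatants harvested 20 h after LPS (final 200 ng/mL) stimulation. Cells were day-10 macrophages derived from human blood CD14+ monocytes, exposed to 3-fold compound dilutions for 1 h at 37 °C beforehand, with DMSO held at 0.2%.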

Experiment [8] concerns LPS triggered IL-10 secretion in monocyte-derived macrophages (MdM). Kind of experiment: MdM assay: LPS-triggered IL-10 (ELISA). Type of experiment: cell-based, human. To be noted: maximal fold change vs LPS only, median across assays. The method in brief:
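Readout is IL-10FCmax, the median across at least two runs of the highest fold change over LPS-only, from ELISA absorbance at 450 nm of 2 h supernatants. Macrophages came from day-10 cultures of human CD14+ monocytes, were given compound for 1 h at 37° C in 0.2% DMSO, then 200 ng/mL LPS.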
On the technique in general: ELISA stands for enzyme-linked immunosorbent assay.

T3 sequence (Q9Y2K2 whole entry): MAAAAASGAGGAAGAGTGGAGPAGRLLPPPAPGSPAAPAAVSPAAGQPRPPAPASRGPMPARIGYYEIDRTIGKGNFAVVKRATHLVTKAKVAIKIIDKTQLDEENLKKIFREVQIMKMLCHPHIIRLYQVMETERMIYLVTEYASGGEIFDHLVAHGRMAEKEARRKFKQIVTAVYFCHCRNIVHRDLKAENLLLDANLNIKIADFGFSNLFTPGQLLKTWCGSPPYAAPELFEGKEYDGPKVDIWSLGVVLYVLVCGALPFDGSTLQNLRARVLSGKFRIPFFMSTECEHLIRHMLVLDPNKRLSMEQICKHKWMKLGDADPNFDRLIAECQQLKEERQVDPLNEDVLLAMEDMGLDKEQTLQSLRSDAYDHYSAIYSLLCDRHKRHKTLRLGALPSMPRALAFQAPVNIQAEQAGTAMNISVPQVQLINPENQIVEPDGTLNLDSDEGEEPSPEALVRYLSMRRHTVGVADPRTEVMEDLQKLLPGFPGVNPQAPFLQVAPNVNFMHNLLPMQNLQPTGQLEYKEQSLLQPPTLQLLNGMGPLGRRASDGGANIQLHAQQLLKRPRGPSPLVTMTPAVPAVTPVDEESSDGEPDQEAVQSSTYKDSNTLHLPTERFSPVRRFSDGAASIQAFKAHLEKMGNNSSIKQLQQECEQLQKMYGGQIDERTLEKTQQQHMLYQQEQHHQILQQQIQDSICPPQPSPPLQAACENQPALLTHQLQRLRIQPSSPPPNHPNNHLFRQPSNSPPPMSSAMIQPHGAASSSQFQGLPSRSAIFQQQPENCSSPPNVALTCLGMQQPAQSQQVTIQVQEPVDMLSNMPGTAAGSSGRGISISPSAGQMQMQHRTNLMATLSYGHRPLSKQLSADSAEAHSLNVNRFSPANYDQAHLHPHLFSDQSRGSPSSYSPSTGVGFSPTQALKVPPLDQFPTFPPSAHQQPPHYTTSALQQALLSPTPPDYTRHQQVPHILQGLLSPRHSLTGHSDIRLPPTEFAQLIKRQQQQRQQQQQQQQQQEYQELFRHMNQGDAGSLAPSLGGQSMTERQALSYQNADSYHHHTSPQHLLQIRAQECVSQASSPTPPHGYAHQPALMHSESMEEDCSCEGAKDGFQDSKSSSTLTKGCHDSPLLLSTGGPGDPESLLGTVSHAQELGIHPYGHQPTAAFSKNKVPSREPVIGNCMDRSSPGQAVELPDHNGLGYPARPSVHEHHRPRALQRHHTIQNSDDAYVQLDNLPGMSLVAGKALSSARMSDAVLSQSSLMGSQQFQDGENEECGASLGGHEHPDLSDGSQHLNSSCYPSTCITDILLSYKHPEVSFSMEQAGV
T2 sequence (Q9H0K1 whole entry): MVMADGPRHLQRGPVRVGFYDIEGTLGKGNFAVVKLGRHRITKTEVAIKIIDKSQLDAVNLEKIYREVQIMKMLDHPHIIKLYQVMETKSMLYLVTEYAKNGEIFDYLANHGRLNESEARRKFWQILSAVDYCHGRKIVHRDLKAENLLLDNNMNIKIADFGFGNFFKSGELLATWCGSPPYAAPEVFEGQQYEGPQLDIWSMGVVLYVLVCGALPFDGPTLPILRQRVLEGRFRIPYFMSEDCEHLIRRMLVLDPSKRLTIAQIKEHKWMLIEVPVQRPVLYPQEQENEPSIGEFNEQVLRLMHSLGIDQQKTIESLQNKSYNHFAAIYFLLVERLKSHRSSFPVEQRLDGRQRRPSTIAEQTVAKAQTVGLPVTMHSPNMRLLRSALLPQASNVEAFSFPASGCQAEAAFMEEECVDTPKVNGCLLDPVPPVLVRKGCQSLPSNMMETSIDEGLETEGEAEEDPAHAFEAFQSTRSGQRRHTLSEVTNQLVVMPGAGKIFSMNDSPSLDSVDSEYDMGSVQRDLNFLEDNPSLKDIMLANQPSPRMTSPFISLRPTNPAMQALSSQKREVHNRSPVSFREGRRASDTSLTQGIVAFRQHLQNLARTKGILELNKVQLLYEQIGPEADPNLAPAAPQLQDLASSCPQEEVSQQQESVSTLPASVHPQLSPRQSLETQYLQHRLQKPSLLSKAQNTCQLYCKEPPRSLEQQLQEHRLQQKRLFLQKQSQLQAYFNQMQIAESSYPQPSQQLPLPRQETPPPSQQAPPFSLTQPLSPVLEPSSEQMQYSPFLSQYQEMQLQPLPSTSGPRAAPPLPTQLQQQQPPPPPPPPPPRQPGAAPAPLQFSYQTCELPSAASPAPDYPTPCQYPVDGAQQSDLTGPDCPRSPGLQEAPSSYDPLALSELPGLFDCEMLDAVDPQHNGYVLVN
T1 sequence (P57059 whole entry): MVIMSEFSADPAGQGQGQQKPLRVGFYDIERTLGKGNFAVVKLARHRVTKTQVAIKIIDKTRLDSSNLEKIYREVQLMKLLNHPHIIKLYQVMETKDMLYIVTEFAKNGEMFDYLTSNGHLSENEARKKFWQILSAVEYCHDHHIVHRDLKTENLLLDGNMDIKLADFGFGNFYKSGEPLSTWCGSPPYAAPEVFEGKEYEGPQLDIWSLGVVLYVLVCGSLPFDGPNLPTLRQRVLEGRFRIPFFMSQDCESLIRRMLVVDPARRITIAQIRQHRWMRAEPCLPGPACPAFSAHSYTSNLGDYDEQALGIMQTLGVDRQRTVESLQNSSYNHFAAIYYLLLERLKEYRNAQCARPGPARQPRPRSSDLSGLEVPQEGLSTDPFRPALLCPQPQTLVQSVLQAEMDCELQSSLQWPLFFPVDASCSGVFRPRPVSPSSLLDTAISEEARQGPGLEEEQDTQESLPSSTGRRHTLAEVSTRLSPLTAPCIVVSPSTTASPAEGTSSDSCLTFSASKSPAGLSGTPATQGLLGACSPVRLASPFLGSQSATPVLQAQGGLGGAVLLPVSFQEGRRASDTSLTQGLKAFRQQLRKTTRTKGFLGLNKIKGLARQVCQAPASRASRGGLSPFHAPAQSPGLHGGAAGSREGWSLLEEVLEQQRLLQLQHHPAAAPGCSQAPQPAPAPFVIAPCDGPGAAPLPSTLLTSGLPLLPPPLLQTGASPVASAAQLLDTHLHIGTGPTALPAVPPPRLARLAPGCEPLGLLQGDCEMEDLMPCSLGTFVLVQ

As for `COc1cc(-c2cnc3cc(-c4cnn(C)c4)ccn23)cc2c1C(=O)N(C1CC1)CC2` [compound 262, 2-cyclopropyl-8-methoxy-6-[7-(1-methylpyrazol-4-yl)imidazo[1,2-a]pyridin-3-yl]-3,4-dihydroisoquinolin-1-one], the IC50 – broadly, the concentration needed to halve the response being measured – was in the range of 10 to 100 nM in experiment [1]; 0.01 to 10 nM in experiment [2]; 0.01 to 10 nM in experiment [3]; 0.01 to 10 nM in experiment [4]; 0.01 to 10 nM in experiment [5]; 0.01 to 10 nM in experiment [6]. Besides, in experiment [7], the EC50 (in general, the concentration that produces a half-maximal response) fell in the range of 0.1 to 100 nM.

For `COc1cc(-c2cnc3cc(-c4cn(C)cn4)ccn23)cc(OC)c1C(=O)N[C@@H](C)C(F)(F)F` [compound 216, 2,6-dimethoxy-4-[7-(1-methylimidazol-4-yl)imidazo[1,2-a]pyridin-3-yl]-N-[(1S)-2,2,2-trifluoro-1-methyl-ethyl]benzamide], the IC50 in experiment [1] fell in the range of 100 to 500 nM; in experiment [2] it was 10 to 100 nM; in experiment [3], 100 to 500 nM; in experiment [4] it was 100 to 500 nM; in experiment [5], 10 to 100 nM; in experiment [6], 10 to 100 nM. This molecule had an EC50 in experiment [7] of 1000 to 5000 nM.

For the molecule `COc1cc(-c2cnc3cc(-c4cnn(C)c4)ccn23)cc2c1C(=O)N(CC(F)(F)F)C2` [compound 261, 7-methoxy-5-[7-(1-methylpyrazol-4-yl)imidazo[l,2-a]pyridin-3-yl]-2-(2,2,2-trifluoroethyl)isoindolin-1-one], the IC50 in experiment [1] fell in the range of 10 to 100 nM; in experiment [2], 0.01 to 10 nM; in experiment [3], 0.01 to 10 nM; in experiment [4], 0.01 to 10 nM; in experiment [5] it was 0.01 to 10 nM; in experiment [6] it was 0.01 to 10 nM. The molecule also had an EC50 in experiment [7] of 0.1 to 100 nM.

For `COc1cc(-n2cnc3cc(-c4cnn(C)c4)ccc32)cc(OC)c1C(=O)NC(C)(C)C` [compound 76, N-tert-butyl-2,6-dimethoxy-4-[5-(1-methylpyrazol-4-yl)benzimidazol-1-yl]benzamide], the IC50 in experiment [1], in experiment [2], in experiment [3], in experiment [4], in experiment [5] and in experiment [6] was more than 500 nM throughout. The EC50 in experiment [7] was more than 5000 nM.

Turning to `COc1cc(-c2cnc3cc(-c4cnnc(C)c4)ccn23)cc(OC)c1C(=O)NCC(F)(F)F` [compound 252, 2,6-dimethoxy-4-[7-(6-methylpyridazin-4-yl)imidazo[1,2-a]pyridin-3-yl]-N-(2,2,2-trifluoroethyl)benzamide], the IC50 in experiment [1] was in the range of 100 to 500 nM; in experiment [2], 10 to 100 nM; in experiment [3] it was 0.01 to 10 nM; in experiment [4], 100 to 500 nM; in experiment [5], 10 to 100 nM; in experiment [6] it was 0.01 to 10 nM. Further, the EC50 in experiment [7] fell in the range of 100 to 1000 nM.

`COc1cc(-c2cnc3cc(-c4cnn(C)c4)ccn23)cc(OC)c1C(=O)N1CC(C(F)(F)F)C1` [compound 213, [2,6-dimethoxy-4-[7-(1-methylpvrazol-4-yl)imidazo[1,2-a]pyridin-3-yl]phenyl]-[3-(trifluoromethyl)azetidin-1-yl]methanone]: the IC50 in experiment [1], in experiment [2], in experiment [3], in experiment [4], in experiment [5] and in experiment [6] was 0.01 to 10 nM each time. In experiment [7], this molecule showed an EC50 of 0.1 to 100 nM.

For the molecule `COc1ccc(-c2ccn3c(-c4cc(OC)c(C(=O)NC5CC5)c(OC(F)F)c4)cnc3c2)nn1` [compound 280, N-cyclopropyl-2-(difluoromethoxy)-6-methoxy-4-[7-(6-methoxypyridazin-3-yl)imidazo[1,2-a]pyridin-3-yl]benzamide], the IC50 in experiment [4], in experiment [5] and in experiment [6] was 0.01 to 10 nM in each case. This molecule came in with an EC50 in experiment [7] of 0.1 to 100 nM. For the same molecule, the “IL-10 FCmax median” value in experiment [8] is reported as “++ (>1.5-4.5)”.
